Experiments:
Test in all cases: relative viability (nuclei count vs DMSO), 5 days (fraction); higher = more cells survive
[1] = compound: O=S(=O)(c1ccccc1)N(CC(F)(F)F)c1ccc(C(O)(C(F)(F)F)C(F)(F)F)cc1 + COc1cc2c(Oc3ccc(NC(=O)C4(C(=O)Nc5ccc(F)cc5)CC4)cc3F)ccnc2cc1OCCCN1CCOCC1 [Foretinib] (partner 0.25 µM)
Summary of the method: (§1)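 After 5 days of treatment, lung cancer cells in 1536-well plates were fixed and stained in a single step (final 0.05% Triton X-100, 1% formaldehyde, 1 ug/ml Hoechst) and their nuclei counted on 4× images. Treatment had been applied by pin tool the day after seeding as one drug alone or as a fixed anchor-drug dose with five library-drug doses (not always all listed) in √10 steps. Relative viability is the nuclei count of treated wells divided by that of vehicle wells, and values are medians of duplicate plates.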

[2] = compound: C1=CC2=C(C=CC(=C2)C=C3C(=O)NC(=NCC4=CC=CS4)S3)N=C1 [RO-3306] + CS(=O)(=O)CCNCc1ccc(-c2ccc3ncnc(Nc4ccc(OCc5cccc(F)c5)c(Cl)c4)c3c2)o1 [Lapatinib] (partner 2 µM)
Summary of the method: as §1

[3] = compound: C1=CC2=C(C=CC(=C2)C=C3C(=O)NC(=NCC4=CC=CS4)S3)N=C1 [RO-3306] + CC1(C)CCC(c2ccc(Cl)cc2)=C(CN2CCN(c3ccc(C(=O)NS(=O)(=O)c4ccc(N[C@H](CCN5CCOCC5)CSc5ccccc5)c(S(=O)(=O)C(F)(F)F)c4)cc3)CC2)C1 [Navitoclax] (partner 0.5 µM)
Summary of the method: as §1

[4] = compound: O=S(=O)(c1ccccc1)N(CC(F)(F)F)c1ccc(C(O)(C(F)(F)F)C(F)(F)F)cc1 + CC(=O)Nc1cccc(-n2c(=O)n(C3CC3)c(=O)c3c(Nc4ccc(I)cc4F)n(C)c(=O)c(C)c32)c1 [Trametinib] (partner 0.02 µM)
Summary of the method: as §1

[5] = compound: O=S(=O)(c1ccccc1)N(CC(F)(F)F)c1ccc(C(O)(C(F)(F)F)C(F)(F)F)cc1 + N=C(N)NC(=N)NCCc1ccccc1 [Phenformin] (partner 250 µM)
Summary of the method: as §1

Cell Line	relative viability ([1]; first compound 0.8 µM)	relative viability ([1]; first compound 2.53 µM)	relative viability ([1]; first compound 8 µM)	relative viability ([2]; first compound 0.01 µM)	relative viability ([2]; first compound 0.03162 µM)	relative viability ([2]; first compound 0.1 µM)	relative viability ([2]; first compound 0.3162 µM)	relative viability ([2]; first compound 1 µM)	relative viability ([3]; first compound 0.01 µM)	relative viability ([3]; first compound 0.03162 µM)	relative viability ([3]; first compound 0.1 µM)	relative viability ([3]; first compound 0.3162 µM)	relative viability ([3]; first compound 1 µM)	relative viability ([4]; first compound 0.8 µM)	relative viability ([4]; first compound 2.53 µM)	relative viability ([4]; first compound 8 µM)	relative viability ([5]; first compound 0.8 µM)	relative viability ([5]; first compound 2.53 µM)	relative viability ([5]; first compound 8 µM)
201T	1.1	0.968	0.92	1.04	0.954	1.01	1.04	0.823	1.2	1.21	1.14	1.23	1.23	0.712	0.666	0.681	0.451	0.41	0.503
A549	0.962	0.944	0.752	1.16	0.953	0.955	1.05	0.971	1.36	–	1.2	1.18	1.21	–	–	–	0.17	0.159	0.186
A-427	1.1	0.967	1.09	1.08	0.986	1.05	1.03	0.448	1.05	0.978	0.959	0.936	0.993	0.722	0.645	0.682	0.286	0.254	0.326
ABC-1	1.31	1.19	1.08	1.25	1.28	1.17	1.16	1.05	–	–	–	–	–	–	–	–	0.238	0.246	0.335
BEN	0.568	0.527	0.578	0.726	0.759	0.754	0.8	0.744	0.057	0.0628	0.0739	0.0677	0.0527	1.05	0.888	1.02	0.262	0.249	0.283
CAL-12T	1.06	0.962	0.936	0.61	–	–	0.73	0.591	1.01	1.07	1.32	1.16	1.13	0.247	0.265	0.238	0.512	0.471	0.464
COR-L23	0.971	1.01	0.888	0.708	–	0.942	1.06	1.18	0.734	–	0.974	1.01	0.937	0.657	0.583	0.539	0.452	0.451	0.427
COR-L 105	1.13	0.852	1.48	0.34	0.351	0.334	0.333	0.314	0.823	0.814	0.742	0.842	0.688	0.39	0.424	0.382	0.455	0.422	0.492
Calu-6	0.822	0.809	0.768	1.27	1.12	0.981	1.18	1.06	1.06	0.776	0.934	0.908	0.826	–	–	–	–	–	–
ChaGo-K-1	1.04	0.84	0.818	–	–	–	–	–	0.971	1.23	0.629	0.952	0.675	0.998	0.862	0.884	0.517	0.52	0.474
EBC-1	0.0993	0.114	0.126	0.206	0.264	0.211	0.193	0.218	0.412	0.357	0.315	0.474	0.29	–	–	–	–	–	–
EKVX	0.751	0.479	0.82	0.173	0.187	0.237	0.192	0.148	1.02	0.94	1.06	0.971	0.921	0.3	0.272	0.324	0.226	0.199	0.228
EMC-BAC-2	1.22	1.04	0.954	0.943	0.722	0.916	0.892	0.871	1.44	0.984	1.25	1.24	1.14	0.813	0.735	0.758	0.701	0.493	0.557
EPLC-272H	0.544	0.599	0.702	0.789	0.595	0.803	0.768	0.849	1.15	0.92	1.02	1.11	0.994	0.274	0.289	0.269	0.273	0.304	0.269
H3255	0.866	0.673	0.786	0.236	0.227	0.245	0.26	0.26	0.458	0.484	0.558	0.47	0.428	0.623	0.565	0.649	0.382	0.373	0.393
HARA	0.845	0.782	0.849	0.763	0.627	0.758	0.687	0.535	1.16	1.11	1.17	1.12	1.37	0.561	–	0.634	0.438	0.357	0.304
HCC-15	1.03	0.951	0.847	0.919	0.779	0.84	0.893	0.592	0.727	0.656	0.716	0.808	0.654	0.37	0.302	0.291	0.469	0.405	0.422
HCC-44	–	–	–	0.976	0.953	0.957	1.07	0.719	1.09	1.01	0.932	1.08	1.03	1.01	0.925	0.918	0.198	0.185	0.185
HCC-78	0.533	0.459	0.466	0.733	0.704	0.732	0.728	0.583	0.814	0.767	0.675	0.92	0.682	0.666	0.575	0.689	0.631	0.612	0.581
HCC-366	0.96	0.937	1.04	1.1	0.939	0.91	1.09	0.759	1.22	0.943	0.991	1.14	1.15	0.469	0.335	0.23	0.693	0.568	0.48
HCC-827	1.04	1.02	0.922	0.226	0.21	0.17	0.214	0.17	1.04	0.988	0.99	0.994	0.998	0.527	0.503	0.244	0.448	0.411	0.4

Cell Line	relative viability ([1]; first compound 0.8 µM)	relative viability ([1]; first compound 2.53 µM)	relative viability ([1]; first compound 8 µM)	relative viability ([2]; first compound 0.01 µM)	relative viability ([2]; first compound 0.03162 µM)	relative viability ([2]; first compound 0.1 µM)	relative viability ([2]; first compound 0.3162 µM)	relative viability ([2]; first compound 1 µM)	relative viability ([3]; first compound 0.01 µM)	relative viability ([3]; first compound 0.03162 µM)	relative viability ([3]; first compound 0.1 µM)	relative viability ([3]; first compound 0.3162 µM)	relative viability ([3]; first compound 1 µM)	relative viability ([4]; first compound 0.8 µM)	relative viability ([4]; first compound 2.53 µM)	relative viability ([4]; first compound 8 µM)	relative viability ([5]; first compound 0.8 µM)	relative viability ([5]; first compound 2.53 µM)	relative viability ([5]; first compound 8 µM)
HOP-62	1.08	1.09	0.881	1.47	0.771	0.93	1.04	1.06	1.14	1.01	1.07	0.937	1.33	0.391	0.297	0.355	0.646	0.533	0.427
IA-LM	1.08	1	1.12	0.816	–	0.665	0.698	0.388	0.838	0.591	0.717	0.903	1.04	–	–	–	–	–	–
LC-2-ad	1.06	0.912	0.867	0.949	0.979	0.868	0.948	0.883	0.451	0.465	0.437	0.408	0.378	0.881	0.884	0.758	0.626	0.584	0.633
LCLC-97TM1	0.914	0.928	0.805	–	0.794	0.949	1.22	1.09	–	0.292	0.354	0.399	0.317	–	0.234	0.165	0.448	0.402	0.419
LCLC-103H	0.973	0.758	0.81	–	–	–	–	–	–	–	–	–	–	0.71	0.731	0.739	0.367	0.297	0.318
LK-2	1.21	1.16	0.835	0.931	0.705	0.886	0.88	0.985	0.892	0.751	0.828	0.913	0.792	0.69	0.548	0.704	0.505	0.66	0.555
LOU-NH91	0.999	0.884	0.937	0.692	0.739	0.811	0.771	0.677	0.666	0.612	0.702	0.685	0.645	0.919	0.844	0.914	0.607	0.562	0.661
NCI-H358	0.592	0.557	0.45	0.5	0.431	0.39	0.495	0.425	–	–	–	–	–	–	0.118	0.118	0.265	0.236	0.261
NCI-H441	0.916	0.927	0.952	–	–	–	–	–	0.593	0.71	0.382	0.57	0.364	0.387	0.348	0.423	1.16	0.905	0.813
NCI-H522	–	–	–	–	–	–	–	–	–	–	–	–	–	0.607	0.781	0.689	0.721	0.736	0.727
NCI-H650	1.18	1.05	1.07	0.867	0.728	0.774	1.06	1.01	–	–	–	–	–	1.1	0.983	0.782	0.396	0.465	0.509
NCI-H661	1.03	0.961	0.844	0.412	0.469	0.532	0.536	0.605	–	–	–	–	–	0.677	0.574	0.533	0.272	0.333	0.3
NCI-H1299	1.1	1.07	1	1	1.03	0.977	0.977	0.986	1.08	1.11	1.04	1	1.03	–	–	–	–	–	–
NCI-H1563	0.922	0.827	0.893	1.03	0.911	0.862	0.979	0.922	–	–	–	–	–	–	–	–	0.676	0.637	0.675
NCI-H1623	0.802	0.805	0.851	–	–	–	–	–	–	–	–	–	–	–	–	–	0.6	0.559	0.57
NCI-H1648	–	–	–	–	–	–	–	–	–	–	–	–	–	0.628	0.369	0.44	–	–	–
NCI-H1703	0.339	0.23	0.29	1.25	0.858	1.03	0.831	1.6	1.23	0.913	1.08	0.887	1.13	–	–	–	–	–	–
NCI-H1792	–	–	–	0.971	–	0.881	0.903	0.499	0.74	–	0.614	0.599	0.311	0.407	0.303	0.287	0.305	0.267	0.204
NCI-H2342	1.15	1.03	0.951	–	–	–	–	–	–	–	–	–	–	0.917	0.854	0.861	0.606	0.599	0.48
SW 900	0.752	0.784	0.82	–	–	–	–	–	–	–	–	–	–	0.787	0.828	0.607	0.649	0.34	0.437
